This passage reports IC50 results from BindingDB's records for doi:10.1111/cbdd.12142 (Delhi Institute of Pharmaceutical Sciences and Research, 2013).

In this assay the target is Dipeptidyl peptidase 4 (Homo sapiens, UniProt P27487). In words: In vitro DPP IV enzyme inhibition assay. Particulars: 37 °C. As for the experimental part: Following the manufacturer's guidelines, the assay was performed using 96-well flat-bottomed microtitre plate followed by addition of assay buffer, DPP IV enzyme and chromogenic substrate (HGly-Pro-pNA). Test compounds were dissolved in DMSO at different concentrations of 25, 50, 100, 200 µg/mL, and 20 µL were added to each well after further dilutions. The plate was incubated at 37°C for 10 min and read continuously at A-405 nm.
Dipeptidyl peptidase 4, sequence (P27487 whole entry): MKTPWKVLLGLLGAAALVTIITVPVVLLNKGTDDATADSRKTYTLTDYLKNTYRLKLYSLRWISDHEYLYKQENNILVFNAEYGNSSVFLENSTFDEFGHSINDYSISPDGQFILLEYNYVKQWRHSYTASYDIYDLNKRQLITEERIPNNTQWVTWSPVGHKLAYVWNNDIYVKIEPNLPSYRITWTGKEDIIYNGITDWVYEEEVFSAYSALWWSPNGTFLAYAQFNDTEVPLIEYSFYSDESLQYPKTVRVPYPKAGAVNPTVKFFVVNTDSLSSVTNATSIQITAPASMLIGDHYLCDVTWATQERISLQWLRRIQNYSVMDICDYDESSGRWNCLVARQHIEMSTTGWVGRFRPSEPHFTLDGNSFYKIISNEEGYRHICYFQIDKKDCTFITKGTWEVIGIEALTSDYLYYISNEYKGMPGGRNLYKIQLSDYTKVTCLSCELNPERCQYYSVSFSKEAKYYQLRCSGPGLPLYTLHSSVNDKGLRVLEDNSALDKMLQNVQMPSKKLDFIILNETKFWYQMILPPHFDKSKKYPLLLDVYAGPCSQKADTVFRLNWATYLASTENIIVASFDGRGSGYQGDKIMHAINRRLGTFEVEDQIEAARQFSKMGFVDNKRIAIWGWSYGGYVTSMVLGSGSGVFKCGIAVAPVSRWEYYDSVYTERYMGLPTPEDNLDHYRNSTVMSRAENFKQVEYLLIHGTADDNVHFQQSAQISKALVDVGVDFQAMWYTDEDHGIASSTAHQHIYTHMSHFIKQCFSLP

The structures appear in SMILES notation.

What is called IC50 is the concentration that inhibits the measured activity by half. With `CN(C)CCN1CCCC1C(=O)N1CCC(F)C1` (centres undefined) [{2‐[2‐(3‐fluoropyrrolidine‐1‐carbonyl)pyrrolidin‐1‐ yl]ethyl}dimethylamine], inhibition was half-maximal at 30.2 µM (IC50).

Regarding `O=C(CN1CCCC1C(=O)N1CCC(F)C1)N1CCN(c2ncccn2)CC1` (centres undefined) [2‐[2‐(3‐fluoropyrrolidine‐1‐carbonyl)pyrrolidin‐1‐ yl]‐1‐[4‐(pyrimidin‐2‐yl)piperazin‐1‐yl]ethan‐1‐ one], the IC50 was found to be 0.43 µM. For `O=C(CN1CCCC1C(=O)N1CCC(F)C1)N1CCN(c2ccccn2)CC1` (centres undefined) [2‐[2‐(3‐fluoropyrrolidine‐1‐carbonyl)pyrrolidin‐1‐ yl]‐1‐[4‐(pyridin‐2‐yl)piperazin‐1‐yl]ethan‐1‐one] the value was 0.83 µM; for `O=C(C1CCCN1CCN1CCCCC1)N1CCC(F)C1` (centres undefined) [1‐{2‐[2‐(3‐fluoropyrrolidine‐1‐carbonyl)pyrrolidin‐1‐ yl]ethyl}piperidine], 6.49 µM; for `O=C(C1CCCN1)N1CCC(F)C1` (centres undefined) [3‐fluoro‐1‐(pyrrolidine‐2‐carbonyl)pyrrolidine], 4.27 µM.

Molecule `O=C(CN1CCCC1C(=O)N1CCC(F)C1)N1CCCCC1` (centres undefined) [2‐[2‐(3‐fluoropyrrolidine‐1‐carbonyl)pyrrolidin‐1‐ yl]‐1‐(piperidin‐1‐yl)ethan‐1‐one] showed an IC50 of 7.88 µM. For `O=C(CN1CCCC1C(=O)N1CCC(F)C1)N1CCCCCC1` (centres undefined) [1‐(azepan‐1‐yl)‐2‐[2‐(3‐fluoropyrrolidine‐1‐ carbonyl)pyrrolidin‐1‐yl]ethan‐1‐one] the value was 3.47 µM. Regarding `CCN(CC)CCN1CCCC1C(=O)N1CCC(F)C1` (centres undefined) [diethyl({2‐[2‐(3‐fluoropyrrolidine‐1‐ carbonyl)pyrrolidin‐1‐yl]ethyl})amine], the IC50 was found to be 23.8 µM. Against the preceding molecule, the IC50 is about 6.9-fold higher.

Consider `O=C(CN1CCCC1C(=O)N1CCC(F)C1)N1CCCC1` (centres undefined) [2‐[2‐(3‐fluoropyrrolidine‐1‐carbonyl)pyrrolidin‐1‐ yl]‐1‐(pyrrolidin‐1‐yl)ethan‐1‐one], for which 16.7 µM corresponded to half-maximal inhibition (IC50).
